Data published in ChEMBL document CHEMBL3102778, “Design of the influenza virus inhibitors targeting the PA endonuclease using 3D-QSAR modeling, side-chain hopping, and docking” (Bioorg Med Chem Lett, 2014).

Experiment: Inhibition of influenza A virus RNA-dependent RNA polymerase subunit PA endonuclease activity

Structure (SMILES): O=C(O)/C(O)=C/C(=O)C1(Cc2ccc(Cl)cc2)CCN(Cc2ccc(Cl)cc2)CC1
- pIC50: 6.27

Structure (SMILES): O=C(Nc1ccc2c(c1)N(O)C(=O)/C2=C(\O)c1ccccc1)c1ccccc1
- pIC50: 5

Structure (SMILES): O=C(Nc1ccc2c(c1)N(O)C(=O)/C2=C(\O)c1ccccc1)c1cnc2ccccc2n1
- pIC50: 4.77

Structure (SMILES): CC(C)CC1=N/C(=C\c2ccccc2)C(=O)N(O)C1=O
- pIC50: 5.32

Structure (SMILES): O=C1C(Cc2ccccc2)=N/C(=C\c2ccc(F)cc2)C(=O)N1O
- pIC50: 5.46

Structure (SMILES): O=C(/C=C/c1ccccc1Cl)Nc1ccc2c(c1)N(O)C(=O)/C2=C(\O)c1ccccc1
- pIC50: 5.02

Structure (SMILES): CC(=O)c1c(O)n(O)c2cc(NC(=O)Nc3cccc(C(=O)O)c3)ccc12
- pIC50: 4.85

Structure (SMILES): O=C1C(Cc2ccc(F)cc2)=N/C(=C\c2ccccc2)C(=O)N1O
- pIC50: 5.19

Structure (SMILES): CC(=O)c1c(O)n(O)c2cc(NC(=O)c3ccc4ccccc4c3)ccc12
- pIC50: 5.05

Structure (SMILES): O=C(Nc1ccc2c(c1)N(O)C(=O)/C2=C(\O)c1ccccc1)c1cccs1
- pIC50: 4.7

Structure (SMILES): C/C(O)=C1/C(=O)N(O)c2cc(NC(=O)/C=C/c3ccccc3Cl)ccc21
- pIC50: 4.59

Structure (SMILES): O=C1/C(=C(\O)c2ccccc2)c2ccc(NS(=O)(=O)c3cccs3)cc2N1O
- pIC50: 4.32

Structure (SMILES): CC/C(O)=C1/C(=O)N(O)c2cc(NC(=O)/C=C/c3ccccc3Cl)ccc21
- pIC50: 5.1

Structure (SMILES): O=C(Nc1ccc2c(c1)N(O)C(=O)/C2=C(\O)c1ccccc1)C1CCCCC1
- pIC50: 4.75

Structure (SMILES): C/C(O)=C1/C(=O)N(O)c2cc(NC(=O)c3cnc4ccccc4n3)ccc21
- pIC50: 4.96

Structure (SMILES): CC/C(O)=C1/C(=O)N(O)c2cc(NC(=O)c3cnc4ccccc4n3)ccc21
- pIC50: 5

Structure (SMILES): CC/C(O)=C1/C(=O)N(O)c2cc(NC(=O)Nc3cccc(C(=O)O)c3)ccc21
- pIC50: 5

Structure (SMILES): CC/C(O)=C1/C(=O)N(O)c2cc(NC(=O)c3cccs3)ccc21
- pIC50: 4.46

Structure (SMILES): O=C(Nc1ccc2c(C(=O)c3ccccc3)c(O)n(O)c2c1)NC1CCCCC1
- pIC50: 4.3

Structure (SMILES): OC(CN1CCCCC1)Cn1c2c(c3ccccc31)CCCC2 (stereo unspecified)
- pIC50: 4.44

Structure (SMILES): CC/C(O)=C1/C(=O)N(O)c2cc(NC(=O)Nc3ccccc3)ccc21
- pIC50: 4.4

Structure (SMILES): C/C(O)=C1/C(=O)N(O)c2cc(NC(=O)c3cccs3)ccc21
- pIC50: 4.4

Structure (SMILES): O=C(Nc1ccc2c(c1)N(O)C(=O)/C2=C(\O)c1ccccc1)c1ccc(Cl)cc1Cl
- pIC50: 4.42

Structure (SMILES): COc1ccc(/C=C2\N=C(CC(C)C)C(=O)N(O)C2=O)cc1
- pIC50: 6.1

Structure (SMILES): O=C(O)/C(O)=C/C(=O)C1(Cc2ccc(Cl)cc2)CCCN(Cc2ccccc2)C1 (stereo unspecified)
- pIC50: 5.96

Structure (SMILES): O=C(O)/C(O)=C/C(=O)C1(Cc2ccc(Cl)cc2)CCCN(S(=O)(=O)Cc2ccccc2)C1 (stereo unspecified)
- pIC50: 6.72

Structure (SMILES): CCC(=O)c1c(O)n(O)c2cc(NC(=O)Nc3ccccc3Cl)ccc12
- pIC50: 4.3

Structure (SMILES): CCC(=O)c1c(O)n(O)c2cc(NC(=O)c3ccc(Cl)cc3Cl)ccc12
- pIC50: 4.35

Structure (SMILES): Cc1cc(C(=O)Nc2ccc3c(c2)N(O)C(=O)/C3=C(\O)c2ccccc2)no1
- pIC50: 5.02

Structure (SMILES): COc1ccc(/C=C2\N=C(Cc3ccccc3)C(=O)N(O)C2=O)cc1
- pIC50: 5.55

Structure (SMILES): CC(C)CC1=N/C(=C\c2ccc(F)cc2)C(=O)N(O)C1=O
- pIC50: 6.05

Structure (SMILES): O=C(Nc1ccccc1)Nc1ccc2c(C(=O)c3ccccc3)c(O)n(O)c2c1
- pIC50: 4.54

Structure (SMILES): Cc1nc(NCC(=O)O)sc1S(=O)(=O)Nc1ccc2c(c1)N(O)C(=O)/C2=C(\O)c1ccccc1
- pIC50: 4.49

Structure (SMILES): CC(C)/C=C1\N=C(CC(C)C)C(=O)N(O)C1=O
- pIC50: 5.26

Structure (SMILES): O=C(Nc1ccc2c(c1)N(O)C(=O)/C2=C(\O)c1ccccc1)c1ccc2ccccc2c1
- pIC50: 5.1

Structure (SMILES): CCC(=O)c1c(O)n(O)c2cc(NC(=O)Nc3ccc(Cl)cc3)ccc12
- pIC50: 4.42
